Data published in ChEMBL document CHEMBL1811813, “Synthesis and cytotoxicity of the depsipeptides analogues of callipeltin B” (Bioorg Med Chem Lett, 2011).
Activity calls are given as the source filed them. The rule behind the calls is not given here. Positions of bridges follow the written chain, without caps; N, C: chain ends. Non-standard residues stand in square brackets, D forms with d. Residues, ends and D or L forms follow the SMILES beside them. *: point of attachment. X1 = C[C@@H](OC(C)(C)C)[C@H](NC(=O)[C@@H](NC(=O)[C@@H]1CCC(=O)N1)[C@@H](C)O*)C(=O)O; NHTrityl = c1ccc(C(N*)(c2ccccc2)c2ccccc2)cc1; Pbf = Cc1c(C)c(S(=O)(=O)*)c(C)c2c1OC(C)(C)C2; NMeQ = CN[C@@H](CCC(N)=O)C(=O)O; pGlu = O=C1CC[C@@H](C(=O)O)N1; NMeA = CN[C@@H](C)C(=O)O; Boc = CC(C)(C)OC(=O)*; tBu = CC(C)(C)*

Assays:
Type in all cases: functional, cell-based
HeLa [1] = assay: Cytotoxicity against human HeLa cells assessed as protease release from damaged cell after at 4-1000 uM after 24 hrs by luminometry
HeLa [2] = assay: Cytotoxicity against human HeLa cells assessed as protease release from damaged cell at 4-100 uM after 24 hrs by luminometry
HeLa [3] = assay: Cytotoxicity against human HeLa cells after 24 hrs by luminometry

In the case of `Cc1c(C)c(S(=O)(=O)NC(=N)NCCC[C@H](NC(=O)[C@@H](NC(=O)[C@@H](NC(=O)[C@H](CCC(N)=O)NC(=O)OC(C)(C)C)[C@@H](C)O)[C@@H](C)OC(C)(C)C)C(=O)N[C@@H](CC(C)C)C(=O)N[C@@H](CCC(=O)NC(c2ccccc2)(c2ccccc2)c2ccccc2)C(=O)N[C@@H](Cc2ccc(OC(C)(C)C)cc2)C(=O)N[C@@H](C)C(=O)O)c(C)c2c1OC(C)(C)C2` (Boc-QTT(tBu)R(Pbf)LE(NHTrityl)Y(tBu)A-OH), the Activity (HeLa [1]) is reported as “inactive”.
In the case of `Cc1c(C)c(S(=O)(=O)NC(=N)NCCC[C@@H]2NC(=O)[C@H]([C@@H](C)OC(C)(C)C)NC(=O)[C@@H](NC(=O)[C@@H](N)CCC(N)=O)[C@@H](C)OC(=O)[C@H](C)NC(=O)[C@H](Cc3ccc(OC(C)(C)C)cc3)NC(=O)[C@H](CCC(=O)NC(c3ccccc3)(c3ccccc3)c3ccccc3)NC(=O)[C@H](CC(C)C)NC2=O)c(C)c2c1OC(C)(C)C2` (H-QTT(tBu)R(Pbf)LE(NHTrityl)Y(tBu)A; ester 2-C), the Activity (HeLa [2]) is reported as “inactive”.
`Cc1c(C)c(S(=O)(=O)NC(=N)NCCC[C@H](N)C(=O)N[C@@H](CC(C)C)C(=O)N[C@@H](CCC(=O)NC(c2ccccc2)(c2ccccc2)c2ccccc2)C(=O)N[C@@H](Cc2ccc(OC(C)(C)C)cc2)C(=O)N[C@@H](C)C(=O)O[C@H](C)[C@H](NC(=O)[C@@H]2CCC(=O)N2)C(=O)N[C@H](C(=O)O)[C@@H](C)OC(C)(C)C)c(C)c2c1OC(C)(C)C2` (H-R(Pbf)LE(NHTrityl)Y(tBu)A-X1) gave an IC50 (HeLa [3]) of 2260 µM.
`CC(C)C[C@@H]1NC(=O)[C@H](CCCNC(=N)N)NC(=O)[C@H]([C@@H](C)O)NC(=O)[C@@H](NC(=O)[C@@H]2CCC(=O)N2)[C@@H](C)OC(=O)[C@H](C)NC(=O)[C@H](Cc2ccc(O)cc2)NC(=O)[C@H](CCC(N)=O)NC1=O` ([pGlu]TTRLQYA; ester 2-C) was tested, and the Activity (HeLa [2]) was “inactive”.
In the case of `CC(C)C[C@@H]1NC(=O)[C@H](C)N(C)C(=O)[C@H]([C@@H](C)O)NC(=O)[C@@H](NC(=O)[C@@H]2CCC(=O)N2)[C@@H](C)OC(=O)[C@H](CCC(N)=O)NC(=O)[C@H](Cc2ccc(O)cc2)NC(=O)[C@H](CCCNC(=N)N)NC1=O` ([pGlu]TT[NMeA]LRYQ; ester 2-C), the Activity (HeLa [2]) is reported as “inactive”.
With `CC(C)C[C@@H]1NC(=O)[C@H](C)N(C)C(=O)[C@H]([C@@H](C)O)NC(=O)[C@@H](NC(=O)[C@@H]2CCC(=O)N2)[C@@H](C)OC(=O)[C@H](CCC(N)=O)N(C)C(=O)[C@H](Cc2ccc(O)cc2)NC(=O)[C@H](CCCNC(=N)N)NC1=O` ([pGlu]TT[NMeA]LRY[NMeQ]; ester 2-C) the Activity (HeLa [2]) was “inactive”.
`C=C(C)[C@H]1Cc2c(ccc3c2O[C@@H]2COc4cc(OC)c(OC)cc4[C@@H]2C3=O)O1` [ROTENONE] was tested, and the IC50 (HeLa [3]) was 78 µM.
